From patent EP0189596A1, “Benzofuran and benzothiophene derivatives” (SHIONOGI & CO., LTD., priority 1984, dated 1986)

Key:
[1] = Bioassay for Diuretic Effect on Rats; format: in vivo, SLc:SD rats; settings: Rat, oral, percentage to control (100%)
Method: (§1) I . Test Method: • Experiments with rats and mice were carried out according to Assay Programs #27-104 and #27-106, respectively. The outline is as follows.
SLc:SD 8-week-old rats (male, about 250g body-weight each) were used for the test. A few lumps of sugar in place of ordinary diets were given on the morning of the day before the test day and 5% glucose solution was given orally at a rate of 20 ml/kg in the evening (approximately at 4 p.m.) of the […]. In the morning for the test, a sample which was prepared by suspending or dissolving a test compound in 2X gum arabic was orally administered to each at a dose of 20 ml/kg. On the other hand, mere by 2% gum arabic was orally administered to the control group at 20 ml/kg. Immediately after the administration, the test animals were put in a plastic cage for the metabolic tests and their urine samples were collected for 5 hours. The cumulative urine volume, urinary sodium (Na^+), and urinary potassium (K^+) were quantitatively determined.
(§2) Results regarding the urine volume are shown by percentages to control (100%). Also, results regarding the urinary sodium (Na^+) and the urinary potassium (K^+) are shown by percentages to control (100%).

[2] = Bioassay for Diuretic Effect on Mice; format: in vivo, Slc:ddy mice; settings: Mouse, oral, Dose (mg) 30, urine collected for 4 hours, percentage to control (100%)
Method: as §1
Slc:ddy 5-week-old mice (female, about 20g body-weight each) were used for the test. From the morning of the day before the test day, the mice were fasted but water. In the morning of the test day, a sample which was prepared by suspending or dissolving a test compound in 2% gum arabic was orally administered to each at 30 ml/kg. On the other hand, mere by 2% gum arabic was orally administered to the control group at 30 ml/kg. Immediately after the administration, 5 mice employed were put in a plastic cage for the metabolic tests and their urine samples were collected for 4 hours. The cumulative urine volume, urinary sodium (Na^+), and urinary potassium (K^+) were quantitatively determined. II. Test Results
as §2

[3] = Dose (mg) 50, urine collected for 5 hours
[4] = Dose (mg) 10, urine collected for 5 hours

SMILES	Urinary K^+ (%) [1, 3]	Urinary Na^+ (%) [1, 3]	Urine Vol. (%) [1, 3]	Urinary K^+ (%) [2]	Urinary Na^+ (%) [2]	Urine Vol. (%) [2]	Urinary K^+ (%) [1, 4]	Urinary Na^+ (%) [1, 4]	Urine Vol. (%) [1, 4]
CC(C(=O)c1cc2c(c(Cl)c1Cl)OC(C(=O)O)C2)=C1SCCS1 (stereo not drawn) [Example 3]	217※ %	291※ %	153※ %	304※ %	1370※ %	270※ %			
CSC(SC)=C(C)C(=O)c1cc2c(c(C)c1Cl)OC(C(=O)O)C2 (stereo not drawn) [Example 14]				330※ %	743※ %	296※ %			
CSC(=CC(=O)c1cc2c(c(Cl)c1Cl)OC(C(=O)OCC(=O)O)C2)SC (stereo not drawn) [Example 17, 6.7-Dichloro-5-[3,3-bis(metbylthic)-2-propenoyl]-2,3-dibydro-1-benzofuran-2-carboxyacetic acid]	285※ %	478※ %	144※ %	277※ %	970※ %	216※ %			
CC(C(=O)c1cc2c(c(Cl)c1Cl)OC(C(=O)O)C2)=C1OCCS1 (stereo not drawn) [Example 21]	178※ %	179※ %	104%	273※ %	704※ %	155※ %			
CSC(=CC(=O)c1cc2c(c(Cl)c1Cl)OC(C=O)C2)SC (stereo not drawn) [Example 28]				260^※ %	905^※ %	222^※ %			
CNC(=S)CC(=O)c1cc2c(c(Cl)c1Cl)OC(C(=O)O)C2 (stereo not drawn) [Example 67, 6,7-dichloro-5-[[N-methyl(thiocarbamoyl)]-acbtyl]-2,3-dihydrobenzofuran-2-carbaxylic acid]	306^※ %	377^※ %	148^※ %	232^※ %	610^※ %	192^※ %			
O=C(C=C1NC=CS1)c1cc2c(c(Cl)c1Cl)OC(C(=O)O)C2 (stereo not drawn) [Example 70, 6,7-dichloro-5-((4-thiazolin-2-ylidene)acetyl]-2,3-dihydro-benzofuran-2-carboxylic acid]	374^※ %	459^※ %	154^※ %	178^※ %	410^※ %	144^※ %			
C=C1CNC(=CC(=O)c2cc3c(c(Cl)c2Cl)OC(C(=O)O)C3)S1 (stereo not drawn) [Example 80]				344^※ %	738^※ %	264^※ %	161^※ %	211^※ %	101%
CSc1[nH]ccc1C(=O)c1cc2c(c(Cl)c1Cl)OC(C(=O)O)C2 (stereo not drawn) [Example 98, 6,7-dichloro-5-[2-(methylthio)pyrrol-3-yl-carbonyl]-2,3-dihydrobenzofuran-2-carboxylic acid]				292^※ %	810^※ %	222^※ %	254^※ %	445^※ %	157^※ %
